Measured values taken from patent publication US9701676B2, “Pro-neurogenic compounds” (Board of Regents of The University of Texas System, priority 2012, dated 2017).

Test system: proliferating neural precursor cells in the hippocampus (subgranular layer of the dentate gyrus)
Assay: standard in vivo hippocampal neurogenesis assay (BrdU labelling, week-long intracranial mini-pump infusion)
Design: species or system mouse (C57/B6)
Conditions: 10 μM concentration, seven days of infusion at 0.5 μL/hour, daily IP BrdU; four 12 week old adult male C57/B6 mice; vehicle 14.5
Method: Compounds were administered at a concentration of 10 μM for each molecule. After seven days of infusion at a constant rate of 0.5 μL/hour, a total of 84 μL of volume will have left the pump (0.00084 μMoles) and entered the cerebrospinal fluid. The average volume of a brain from a 12 week old male, C57/B6 mouse in the study is 500 mm^3. […] Under these conditions, at the end of one week of infusion each compound would be present at 1.7 μMolar concentration. Since the actual amount of chemical compound in the brain is likely to be only a fraction of this predicted level, it is reasonable to estimate that compounds were administered at mid to low-nanomolar concentrations.
During compound infusion, animals were intraperitoneally (IP) injected daily with the thymidine analog, bromodeoxyuridine (BrdU), as a means of scoring the birth and survival of proliferating neural precursor cells in the hippocampus. Because both social interaction and voluntary exercise are known to stimulate hippocampal neurogenesis, mice were housed individually without access to running wheels throughout the screening period. Following the week-long period of compound administration, animals were perfused and sacrificed. Dissected brain tissue was fixed, embedded, sectioned, stained with antibodies to BrdU, and evaluated by light microcopy as a means of quantifying neurogenesis and survival of newborn neural precursor cells localized to the subgranular layer of the dentate gyms on the brain hemisphere contralateral to the side of mini-pump cannulation. Every fifth section throughout the entire rostral-caudal extent of the hippocampus was analyzed, and the total number of BrdU+ cells was normalized against the measured volume of the dentate gyms.
Intracranial infusions of either fibroblast growth factor 2 (FGF-2) or artificial cerebral spinal fluid (aCSF) vehicle via the same, week-long protocol were employed as positive and negative controls.
Compounds were evaluated for pro-neurogenic efficacy/neuroprotection in a standard in vivo hippocampal neurogenesis assay at 10 μM concentration in four 12 week old adult male C57/B16 mice.

| Molecule | (×10^−06) BrdU+ cells/mm^3 dentate gyrus |
| --- | --- |
| N#CCn1c2ccc(Br)cc2c2cc(Br)ccc21 [P7C3-S235, 2-(3,6-dibromo-9H-carbazol-9-yl)acetonitrile] | 23.4 (×10^−06) BrdU+ cells/mm^3 |
| Cc1ccc2[nH]c3ccc(C)cc3c2c1 [P7C3-S237, 3,6-dimethyl-9H-carbazole] | 23.5 (×10^−06) BrdU+ cells/mm^3 |
| NC(=O)c1ccc2c(c1)c1cc(Br)ccc1n2CC(=O)O [P7C3-S238, 2-(3-bromo-6-carbamoyl-9H-carbazol-9-yl)acetic acid] | 18.8 (×10^−06) BrdU+ cells/mm^3 |
| O=C(O)Cn1c2ccc(Br)cc2c2cc(C(=O)O)ccc21 [P7C3-S239, 6-bromo-9-(carboxymethyl)-9H-carbazole-3-carboxylic acid] | 22.8 (×10^−06) BrdU+ cells/mm^3 |
| Cc1ccc2c(c1)c1cc(Br)ccc1n2CC(=O)O [P7C3-S240, 2-(3-bromo-6-methyl-9H-carbazol-9-yl)acetic acid] | 28.5 (×10^−06) BrdU+ cells/mm^3 |
| O=C(O)CCc1c[nH]c2ccccc12 [P7C3-S242, 3-indolepropionic acid, reference compound] | 21.5 (×10^−06) BrdU+ cells/mm^3 |
| CN(C)c1nc(O)c2[nH]c3ccccc3c2n1 [P7C3-S245, 2-(dimethylamino)-5H-pyrimido[5,4-b]indol-4-ol] | 32.4 (×10^−06) BrdU+ cells/mm^3 |
| CCOC(=O)c1ncc2c(n1)c1ccccc1n2S(=O)(=O)c1ccc(C)cc1 [P7C3-S246, ethyl 5-tosyl-5H-pyrimido[5,4-b]indole-2-carboxylate] | 29 (×10^−06) BrdU+ cells/mm^3 |
| CCOC(=O)C1=NCc2c(c3ccccc3n2S(=O)(=O)c2ccc(C)cc2)N1 [P7C3-S247, ethyl 5-tosyl-4,5-dihydro-1H-pyrimido[5,4-b]indole-2-carboxylate] | 31.1 (×10^−06) BrdU+ cells/mm^3 |
| N[C@@H](Cc1c[nH]c2ccccc12)C(=O)O [P7C3-S248, L-tryptophan, reference compound] | 20.1 (×10^−06) BrdU+ cells/mm^3 |
| N[C@@H](Cc1c[nH]c2ccc(O)cc12)C(=O)O [P7C3-S249, L-5-hydroxy-tryptophan, reference compound] | 34.8 (×10^−06) BrdU+ cells/mm^3 |
| COc1cccc(N(CC(O)Cn2c3ccc(Br)cc3c3cc(Br)ccc32)S(C)(=O)=O)c1 (stereo not shown) [P7C3-S251, N-(3-(3,6-dibromo-9H-carbazol-9-yl)-2-hydroxypropyl)-N-(3-methoxyphenyl)methanesulfonamide] | 17.7 (×10^−06) BrdU+ cells/mm^3 |
| COc1cccc(N(CC(O)Cn2c3ccc(Br)cc3c3cc(Br)ccc32)S(=O)(=O)c2ccccc2)c1 (stereo not shown) [P7C3-S252, N-(3-(3,6-dibromo-9H-carbazol-9-yl)-2-hydroxypropyl)-N-(3-methoxyphenyl)benzenesulfonamide] | 33.2 (×10^−06) BrdU+ cells/mm^3 |
| COc1cccc(N(CC(O)Cn2c3ccc(Br)cc3c3cc(Br)ccc32)S(=O)(=O)c2ccccc2C(F)(F)F)c1 (stereo not shown) [P7C3-S253, N-(3-(3,6-dibromo-9H-carbazol-9-yl)-2-hydroxypropyl)-N-(3-methoxyphenyl)-2-(trifluoromethyl)benzenesulfonamide] | 28.5 (×10^−06) BrdU+ cells/mm^3 |
| COc1ccc(S(=O)(=O)N(CC(O)Cn2c3ccc(Br)cc3c3cc(Br)ccc32)c2cccc(OC)c2)cc1 (stereo not shown) [P7C3-S254, N-(3-(3,6-dibromo-9H-carbazol-9-yl)-2-hydroxypropyl)-4-methoxy-N-(3-methoxyphenyl)benzenesulfonamide] | 25.5 (×10^−06) BrdU+ cells/mm^3 |
| COc1cccc(N(CC(F)Cn2c3ccc(Br)cc3c3cc(Br)ccc32)S(C)(=O)=O)c1 (stereo not shown) [P7C3-S256, N-(3-(3,6-dibromo-9H-carbazol-9-yl)-2-fluoropropyl)-N-(3-methoxyphenyl)methanesulfonamide] | 31.5 (×10^−06) BrdU+ cells/mm^3 |

| Molecule | (×10^−06) BrdU+ cells/mm^3 dentate gyrus |
| --- | --- |
| COc1cccc(N(CC(F)Cn2c3ccc(Br)cc3c3cc(Br)ccc32)S(=O)(=O)c2ccccc2C(F)(F)F)c1 (stereo not shown) [P7C3-S257, N-(3-(3,6-dibromo-9H-carbazol-9-yl)-2-fluoropropyl)-N-(3-methoxyphenyl)-2-(trifluoromethyl)benzenesulfonamide] | 29.4 (×10^−06) BrdU+ cells/mm^3 |
| COc1ccc(S(=O)(=O)N(CC(F)Cn2c3ccc(Br)cc3c3cc(Br)ccc32)c2cccc(OC)c2)cc1 (stereo not shown) [P7C3-S258, N-(3-(3,6-dibromo-9H-carbazol-9-yl)-2-fluoropropyl)-4-methoxy-N-(3-methoxyphenyl)benzenesulfonamide] | 29.8 (×10^−06) BrdU+ cells/mm^3 |
| CCOC(=O)c1ncc2[nH]c3ccccc3c2n1 [P7C3-S262, ethyl 5H-pyrimido[5,4-b]indole-2-carboxylate] | 18 (×10^−06) BrdU+ cells/mm^3 |
| O=S(=O)(NCC(O)Cn1c2ccc(Br)cc2c2cc(Br)ccc21)C(F)(F)F (stereo not shown) [P7C3-S264, N-(3-(3,6-dibromo-9H-carbazol-9-yl)-2-hydroxypropyl)-1,1,1-trifluoromethanesulfonamide] | 20.6 (×10^−06) BrdU+ cells/mm^3 |
| CCCN(CCC)C(=O)Cc1c(-c2ccc(Cl)cc2)nc2ccc(Cl)cn12 [P7C3-S265, 6-Chloro-2-(4-chlorophenyl)-N,N-dipropyl-imidazo[1,2-a]pyridine-3-acetamide, reference compound] | 29.3 (×10^−06) BrdU+ cells/mm^3 |
| CC(C)CCC[C@@H](C)[C@H]1CC[C@H]2[C@@H]3CCC4=CC(=NO)CC[C@]4(C)[C@H]3CC[C@]12C [P7C3-S266, Cholest-4-en-3-one, oxime, reference compound] | 42.3 (×10^−06) BrdU+ cells/mm^3 |
| Cc1c(C)c2c(c(C)c1O)CC[C@@](C)(CCC[C@H](C)CCC[C@H](C)CCCC(C)C)O2 [P7C3-S267, (+)-a-tocopherol, reference compound] | 21.4 (×10^−06) BrdU+ cells/mm^3 |
| N#Cc1[nH]c2ccccc2c1N [P7C3-S268, 3-amino-1H-indole-2-carbonitrile] | 32.1 (×10^−06) BrdU+ cells/mm^3 |
| O=c1[nH]c(=O)c2[nH]c3ccc(Br)cc3c2[nH]1 [P7C3-S269, 8-bromo-1H-pyrimido[5,4-b]indole-2,4(3H, 5H)-dione] | 35.4 (×10^−06) BrdU+ cells/mm^3 |
| CN(C)c1nc(O)c2[nH]c3ccc(Br)cc3c2n1 [P7C3-S270, 8-bromo-2-(dimethylamino)-5H-pyrimido[5,4-b]indol-4-ol] | 28 (×10^−06) BrdU+ cells/mm^3 |
| COc1nc(N(C)C)nc2c3cc(Br)ccc3n(C)c12 [P7C3-S275, 8-bromo-4-methoxy-N,N,5-trimethyl-5H-pyrimido[5,4-b]indol-2-amine] | 20.5 (×10^−06) BrdU+ cells/mm^3 |
| COc1ccc2[nH]c(C#N)c(N)c2c1 [P7C3-S276, 3-amino-5-methoxy-1H-indole-2-carbonitrile] | 29.3 (×10^−06) BrdU+ cells/mm^3 |
| O=C(NCC(O)Cn1c2ccc(Br)cc2c2cc(Br)ccc21)Nc1ccccc1 (stereo not shown) [P7C3-S277, 1-(3-(3,6-dibromo-9H-carbazol-9-yl)-2-hydroxypropyl)-3-phenylurea] | 20.3 (×10^−06) BrdU+ cells/mm^3 |
| Cc1ccc2c(c1)c1cc(Br)ccc1n2C [P7C3-S280, 3-bromo-6,9-dimethyl-9H-carbazole] | 25.1 (×10^−06) BrdU+ cells/mm^3 |
| FGF-2: fibroblast growth factor 2, intracranial infusion employed as positive control | 28.4 (×10^−06) BrdU+ cells/mm^3 |
